Test: solubility in hot methanol
Type: physicochemical
Conditions: 3 volumes

For `CC1O[C@@H](OC2C(O)[C@@H](O)C(CO)O[C@H]2O[C@@H]2C(CO)OC(O)C(O)C2O)C(OCc2ccccc2)C(OCc2ccccc2)[C@@H]1OCc1ccccc1` (stereo partly drawn) [anhydrous derivative, O-(2,3,4-tri-O-benzyl-α-L-fucopyranosyl)-(1→2)-O-β-D-galactopyranosyl-(1→4)-D-glucose], the “solubility in hot methanol” value was “excellent solubility”.

Source: US9012625B2, “Method for the synthesis of a trisaccharide” (Glycom A/S, priority 2009, dated 2015)
